Target: NS5B polymerase (Hepatitis C virus genotype 1b, UniProt P26663)
Test: biochemical
Conditions: not given
Description: Compounds were tested for HCV polymerase inhibition. Assays were performed in a 96-well streptavidin-coated FlashPlate using 20 nM enzyme, 0.5 μCi of [α-^33P]GTP, 0.6 μM GTP, and 250 nM 5′biotinylated oligo (rG13)/poly rC in 20 mM Tris-HCl, pH 7.5, 5 mM MgCl2, 5 mM dithiothreitol, 0.1 g/L bovine serum albumin, and 100 U/mL RNAse inhibitor. The reaction was stopped by aspiration after 75 min at 28° C. and the plate was washed several times. After washing and drying the plate, incorporated radioactivity was counted using a Microbeta scintillation counter. IC50 values were calculated relative to the uninhibited control and inhibition data were fitted to a 4-parameter IC50 equation.

NS5B polymerase, sequence (P26663 2420-3010): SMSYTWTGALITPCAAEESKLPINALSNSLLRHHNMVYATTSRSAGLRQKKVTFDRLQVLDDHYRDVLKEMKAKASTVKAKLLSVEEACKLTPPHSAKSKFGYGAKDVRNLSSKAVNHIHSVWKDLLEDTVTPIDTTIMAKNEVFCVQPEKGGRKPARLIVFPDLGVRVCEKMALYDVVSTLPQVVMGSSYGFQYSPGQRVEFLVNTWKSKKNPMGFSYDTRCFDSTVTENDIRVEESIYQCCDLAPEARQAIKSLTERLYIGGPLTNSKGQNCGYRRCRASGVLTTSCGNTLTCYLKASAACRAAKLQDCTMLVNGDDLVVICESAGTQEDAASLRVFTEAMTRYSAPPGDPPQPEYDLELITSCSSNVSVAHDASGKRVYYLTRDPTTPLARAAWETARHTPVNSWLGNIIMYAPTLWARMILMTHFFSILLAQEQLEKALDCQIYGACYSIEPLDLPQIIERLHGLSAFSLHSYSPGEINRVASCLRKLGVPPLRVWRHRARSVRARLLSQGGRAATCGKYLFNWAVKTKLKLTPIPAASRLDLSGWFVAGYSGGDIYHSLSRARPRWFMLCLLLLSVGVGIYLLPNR

Structure (SMILES)	IC50
CS(=O)(=O)Nc1ccc2c(c1)S(=O)(=O)N=C(C1=C(O)[C@H]3[C@H]4CC[C@H](C4)[C@H]3N(Cc3ccc(F)cc3)C1=O)N2 [Example 5, N-{3-[(1R,2R,7S,8S)-3-(4-Fluoro-benzyl)-6-hydroxy-4-oxo-3-aza-tricyclo[6.2.1.0^2,7]undec-5-en-5-yl]-1,1-dioxo-1,4-dihydro-1λ^6-benzo[1,2,4]thiadiazin-7-yl}-methanesulfonamide]	100 to 1000 nM
CS(=O)(=O)Nc1ccc2c(c1)S(=O)(=O)N=C(C1=C(O)[C@@H]3[C@H]4CC[C@H](C4)[C@@H]3N(Cc3ccc(F)cc3)C1=O)N2 [Example 6, N-{3-[(1R,2S,7R,8S)-3-(4-Fluoro-benzyl)-6-hydroxy-4-oxo-3-aza-tricyclo[6.2.1.0^2,7]undec-5-en-5-yl]-1,1-dioxo-1,4-dihydro-1λ^6-benzo[1,2,4]thiadiazin-7-yl}-methanesulfonamide]	< 20 nM

Same assay, conditions: NS5B polymerase inhibition; 20 nM enzyme, 75 min at 28° C.; read-out: IC50

Structure (SMILES)	IC50
CC(C)CCN1C(=O)C(C2=NS(=O)(=O)c3cc(N4CCCC4)ccc3N2)=C(O)[C@@H]2[C@H]3CC[C@H](C3)[C@@H]21 [Example 53, (1R,2S,7R,8S)-5-(1,1-Dioxo-7-pyrrolidin-1-yl-1,4-dihydro-1λ^6-benzo[1,2,4]thiadiazin-3-yl)-6-hydroxy-3-(3-methyl-butyl)-3-aza-tricyclo[6.2.1.0^2,7]undec-5-en-4-one]	1000 to 100000 nM
O=C1C(C2=NS(=O)(=O)c3cc(N4CCCS4(=O)=O)ccc3N2)=C(O)[C@@H]2[C@H]3CC[C@H](C3)[C@@H]2N1Cc1ccc(F)cc1 [Example 26, (1R,2S,7R,8S)-5-[7-(1,1-Dioxo-1λ^6-isothiazolidin-2-yl)-1,1-dioxo-1,4-dihydro-1λ^6-benzo[1,2,4]thiadiazin-3-yl]-3-(4-fluoro-benzyl)-6-hydroxy-3-aza-tricyclo[6.2.1.0^2,7]undec-5-en-4-one]	100 to 1000 nM
CC(C)CCN1C(=O)C(C2=CS(=O)(=O)c3cc(NS(C)(=O)=O)ccc3N2)=C(O)C2C3C=CC(C3)C21 (racemic) [Example 38, (rac-di-exo)-N-{3-[6-Hydroxy-3-(3-methyl-butyl)-4-oxo-3-aza-tricyclo[6.2.1.0^2,7]undeca-5,9-dien-5-yl]-1,1-dioxo-1,4-dihydro-1λ^6-benzo[1,4]thiazin-7-yl}-methanesulfonamide]	20 to 100 nM
CS(=O)(=O)Nc1cnc2c(c1)S(=O)(=O)N=C(C1=C(O)[C@@H]3[C@H]4CC[C@H](C4)[C@@H]3N(Cc3ccc(F)cc3)C1=O)N2 [Example 62, N-{3-[(1R,2S,7R,8S)-3-(4-Fluoro-benzyl)-6-hydroxy-4-oxo-3-aza-tricyclo[6.2.1.0^2,7]undec-5-en-5-yl]-1,1-dioxo-1,4-dihydro-1λ^6-pyrido[2,3-e][1,2,4]thiadiazin-7-yl}-methanesulfonamide]	20 to 100 nM
CS(=O)(=O)Nc1ccc2c(c1)S(=O)(=O)C=C(C1=C(O)C3C4C=CC(C4)C3N(Cc3ccc(F)cc3)C1=O)N2 (racemic) [Example 37, (rac-di-exo)-N-{3-[3-(4-Fluoro-benzyl)-6-hydroxy-4-oxo-3-aza-tricyclo[6.2.1.0^2,7]undeca-5,9-dien-5-yl]-1,1-dioxo-1,4-dihydro-1λ^6-benzo[1,4]thiazin-7-yl}-methanesulfonamide]	< 20 nM
CS(=O)(=O)Nc1ccc2c(c1)S(=O)(=O)N=C(C1=C(O)C3C4CCC(O4)C3N(CCC3CC3)C1=O)N2 (racemic) [Example 23, (rac-di-exo)-N-{3-[3-(2-Cyclopropyl-ethyl)-6-hydroxy-4-oxo-11-oxa-3-aza-tricyclo[6.2.1.0^2,7]undec-5-en-5-yl]-1,1-dioxo-1,4-dihydro-1λ^6-benzo[1,2,4]thiadiazin-7-yl}-methanesulfonamide]	< 20 nM
CC(C)(C)CCN1C(=O)C(C2=NS(=O)(=O)c3cc(NS(C)(=O)=O)ccc3N2)=C(O)C2C3C=CC(C3)C21 (racemic) [Example 32, (rac-di-exo)-N-{3-[3-(3,3-Dimethyl-butyl)-6-hydroxy-4-oxo-3-aza-tricyclo[6.2.1.0^2,7]undeca-5,9-dien-5-yl]-1,1-dioxo-1,4-dihydro-1λ^6-benzo[1,2,4]thiadiazin-7-yl}-methanesulfonamide]	20 to 100 nM
NS(=O)(=O)Nc1ccc2c(c1)S(=O)(=O)N=C(C1=C(O)[C@@H]3[C@H]4CC[C@H](C4)[C@@H]3N(Cc3ccc(F)cc3)C1=O)N2 [Example 55, (1R,2S,7R,8S)-N-{3-[3-(4-Fluoro-benzyl)-6-hydroxy-4-oxo-3-aza-tricyclo[6.2.1.0^2,7]undec-5-en-5-yl]-1,1-dioxo-1,4-dihydro-1λ^6-benzo[1,2,4]thiadiazin-7-yl}-sulfamide]	< 20 nM

Other lines, results leading:

IC50	Structure (SMILES)
1000 to 100000 nM	O=C1C(C2=NS(=O)(=O)c3cc(Br)cnc3N2)=C(O)C2C([C@@H]3CC[C@H]2C3)N1Cc1ccc(F)cc1 (stereo partly shown) [Example 61]
20 to 100 nM	CC(C)CCN1C(=O)C(C2=NS(=O)(=O)c3cc(NS(=O)(=O)C4CC4)ccc3N2)=C(O)C2C3C=CC(C3)C21 (racemic) [Example 45, (rac-di-exo)-Cyclopropanesulfonic acid{3-[6-hydroxy-3-(3-methyl-butyl)-4-oxo-3-aza-tricyclo[6.2.1.0^2,7]undeca-5,9-dien-5-yl]-1,1-dioxo-1,4-dihydro-1λ^6-benzo[1,2,4]thiadiazin-7-yl}-amide]
1000 to 100000 nM	O=C1C(C2=NS(=O)(=O)c3cc(I)ccc3N2)=C(O)[C@@H]2[C@H]3CC[C@H](C3)[C@@H]2N1Cc1ccc(F)cc1 [Example 19, (1R,2S,7R,8S)-3-(4-Fluoro-benzyl)-6-hydroxy-5-(7-iodo-1,1-dioxo-1,4-dihydro-1λ^6-benzo[1,2,4]thiadiazin-3-yl)-3-aza-tricyclo[6.2.1.0^2,7]undec-5-en-4-one]
20 to 100 nM	O=C1C(C2=NS(=O)(=O)c3cc(NS(=O)(=O)C4CC4)ccc3N2)=C(O)C2C([C@@H]3CC[C@H]2C3)N1Cc1ccc(F)cc1 (stereo partly drawn) [Example 35, Cyclopropane sulfonic acid{3-[(1R,2S,7R,8S)-3-(4-fluoro-benzyl)-6-hydroxy-4-oxo-3-aza-tricyclo[6.2.1.0^2,7]undec-5-en-5-yl]-1,1-dioxo-1,4-dihydro-1λ^6-benzo[1,2,4]thiadiazin-7-yl}-amide]
< 20 nM	CC(C)CCN1C(=O)C(C2=NS(=O)(=O)c3cc(NS(C)(=O)=O)ccc3N2)=C(O)C2C3CCC(O3)C21 (racemic) [Example 25, (rac-di-exo)-N-{3-[6-Hydroxy-3-(3-methyl-butyl)-4-oxo-11-oxa-3-aza-tricyclo[6.2.1.0^2,7]undec-5-en-5-yl]-1,1-dioxo-1,4-dihydro-1λ^6-benzo[1,2,4]thiadiazin-7-yl}-methanesulfonamide]
20 to 100 nM	CC(C)(C)CCN1C(=O)C(C2=CS(=O)(=O)c3cc(NS(C)(=O)=O)ccc3N2)=C(O)C2C3C=CC(C3)C21 (racemic) [Example 36, (rac-di-exo)-N-{3-[3-(3,3-Dimethyl-butyl)-6-hydroxy-4-oxo-3-aza-tricyclo[6.2.1.0^2,7]undeca-5,9-dien-5-yl]-1,1-dioxo-1,4-dihydro-1λ^6-benzo[1,4]thiazin-7-yl}-methanesulfonamide]
20 to 100 nM	CC(C)(C)CCN1C(=O)C(C2=NS(=O)(=O)c3cc(NS(C)(=O)=O)ccc3N2)=C(O)C2C3CCC(O3)C21 (racemic) [Example 13, (rac-di-exo)-N-{3-[3-(3,3-Dimethyl-butyl)-6-hydroxy-4-oxo-11-oxa-3-aza-tricyclo[6.2.1.0^2,7]undec-5-en-5-yl]-1,1-dioxo-1,4-dihydro-1λ^6-benzo[1,2,4]thiadiazin-7-yl}-methanesulfonamide]
20 to 100 nM	CS(=O)(=O)Nc1ccc2c(c1)S(=O)(=O)N=C(C1=C(O)C3C4C=CC(C4)C3N(Cc3ccc(F)cc3)C1=O)N2 (racemic) [Example 9, (rac-di-exo)-N-{3-[3-(4-Fluoro-benzyl)-6-hydroxy-4-oxo-3-aza-tricyclo[6.2.1.0^2,7]undeca-5,9-dien-5-yl]-1,1-dioxo-1,4-dihydro-1λ^6-benzo[1,2,4]thiadiazin-7-yl}-methanesulfonamide]
20 to 100 nM	O=C1C(C2=NS(=O)(=O)c3cc(C4CCCS4(=O)=O)ccc3N2)=C(O)[C@@H]2[C@H]3CC[C@H](C3)[C@@H]2N1Cc1ccc(F)cc1 (stereo partly drawn) [Example 21, (1R,2S,7R,8S)-5-[7-(1,1-Dioxo-tetrahydro-1λ^6-thiophen-2-yl)-1,1-dioxo-1,4-dihydro-1λ^6-benzo[1,2,4]thiadiazin-3-yl]-3-(4-fluoro-benzyl)-6-hydroxy-3-aza-tricyclo[6.2.1.0^2,7]undec-5-en-4-one]
20 to 100 nM	CC(C)CCN1C(=O)C(C2=NS(=O)(=O)c3cc(NS(C)(=O)=O)ccc3N2)=C(O)C2C3C=CC(C3)C21 (racemic) [Example 31, (rac-di-exo)-N-{3-[6-Hydroxy-3-(3-methyl-butyl)-4-oxo-3-aza-tricyclo[6.2.1.0^2,7]undeca-5,9-dien-5-yl]-1,1-dioxo-1,4-dihydro-1λ^6-benzo[1,2,4]thiadiazin-7-yl}-methanesulfonamide]
20 to 100 nM	Cc1cc(CN2C(=O)C(C3=NS(=O)(=O)c4cc(N(C)S(C)(=O)=O)ccc4N3)=C(O)[C@@H]3[C@H]4CC[C@H](C4)[C@@H]32)ccc1F [Example 18, N-{3-[(1R,2S,7R,8S)-3-(4-Fluoro-3-methyl-benzyl)-6-hydroxy-4-oxo-3-aza-tricyclo[6.2.1.0^2,7]undec-5-en-5-yl]-1,1-dioxo-1,4-dihydro-1λ^6-benzo[1,2,4]thiadiazin-7-yl}-N-methyl-methanesulfonamide]
20 to 100 nM	CS(=O)(=O)Nc1ccc2c(c1)S(=O)(=O)N=C(C1=C(O)C3C4C=CC(C4)C3N(Cc3ccc(F)cc3)C1=O)N2 (racemic) [Example 10, (rac-di-endo)-N-{3-[3-(4-Fluoro-benzyl)-6-hydroxy-4-oxo-3-aza-tricyclo[6.2.1.0^2,7]undeca-5,9-dien-5-yl]-1,1-dioxo-1,4-dihydro-1λ^6-benzo[1,2,4]thiadiazin-7-yl}-methanesulfonamide]

— patent publication US8765741B2, “5,6-dihydro-1H-pyridin-2-one compounds” (Anadys Pharmaceuticals, Inc., priority 2007, dated 2014)
